Test results reported in the supplement of paper PMC10307832.

Experiments:
Assay in all cases: relative viability (nuclei count vs DMSO), 5 days (fraction); higher = more cells survive
Erlotinib + Trametinib = compound: C#Cc1cccc(Nc2ncnc3cc(OCCOC)c(OCCOC)cc23)c1 [Erlotinib] + CC(=O)Nc1cccc(-n2c(=O)n(C3CC3)c(=O)c3c(Nc4ccc(I)cc4F)n(C)c(=O)c(C)c32)c1 [Trametinib] (partner 0.02 µM)
In short: (§1)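 A single step with final 0.05% Triton X-100, 1% formaldehyde and 1 ug/ml Hoechst fixed the cells and stained nuclei 5 days after treatment. Lung cancer cell lines in 1536-well plates had been treated by pin tool the day after seeding with one drug alone or a fixed anchor-drug dose plus five library-drug doses (not always all listed) in √10 steps, and nuclei were counted on 4× images. Relative viability is the ratio of nuclei in treated wells to nuclei in vehicle wells, taken as the median of duplicate plates.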

Erlotinib + AZD7762 = compound: C#Cc1cccc(Nc2ncnc3cc(OCCOC)c(OCCOC)cc23)c1 [Erlotinib] + NC(=O)Nc1cc(-c2cccc(F)c2)sc1C(=O)N[C@H]1CCCNC1 [AZD7762] (partner 0.2 µM)
In short: as §1

AT9283 + Bortezomib = compound: O=C(Nc1c[nH]nc1-c1nc2ccc(CN3CCOCC3)cc2[nH]1)NC1CC1 [AT9283] + CC(C)C[C@H](NC(=O)[C@H](Cc1ccccc1)NC(=O)c1cnccn1)B(O)O [Bortezomib] (partner 0.002 µM)
In short: as §1

AT9283 + Pictilisib = compound: O=C(Nc1c[nH]nc1-c1nc2ccc(CN3CCOCC3)cc2[nH]1)NC1CC1 [AT9283] + CS(=O)(=O)N1CCN(Cc2cc3nc(-c4cccc5[nH]ncc45)nc(N4CCOCC4)c3s2)CC1 [Pictilisib] (partner 1 µM)
In short: as §1

AT9283 + Tozasertib = compound: O=C(Nc1c[nH]nc1-c1nc2ccc(CN3CCOCC3)cc2[nH]1)NC1CC1 [AT9283] + Cc1cc(Nc2cc(N3CCN(C)CC3)nc(Sc3ccc(NC(=O)C4CC4)cc3)n2)n[nH]1 [Tozasertib] (partner 0.1 µM)
In short: as §1

Cell Line	relative viability (Erlotinib + Trametinib; first compound 0.02 µM)	relative viability (Erlotinib + Trametinib; first compound 0.2 µM)	relative viability (Erlotinib + Trametinib; first compound 0.6325 µM)	relative viability (Erlotinib + Trametinib; first compound 2 µM)	relative viability (Erlotinib + AZD7762; first compound 0.02 µM)	relative viability (Erlotinib + AZD7762; first compound 0.6325 µM)	relative viability (Erlotinib + AZD7762; first compound 2 µM)	relative viability (AT9283 + Bortezomib; first compound 0.003 µM)	relative viability (AT9283 + Bortezomib; first compound 0.03 µM)	relative viability (AT9283 + Bortezomib; first compound 0.09487 µM)	relative viability (AT9283 + Bortezomib; first compound 0.3 µM)	relative viability (AT9283 + Pictilisib; first compound 0.003 µM)	relative viability (AT9283 + Pictilisib; first compound 0.03 µM)	relative viability (AT9283 + Pictilisib; first compound 0.09487 µM)	relative viability (AT9283 + Pictilisib; first compound 0.3 µM)	relative viability (AT9283 + Tozasertib; first compound 0.003 µM)	relative viability (AT9283 + Tozasertib; first compound 0.03 µM)	relative viability (AT9283 + Tozasertib; first compound 0.09487 µM)	relative viability (AT9283 + Tozasertib; first compound 0.3 µM)	relative viability (Erlotinib + AZD7762; first compound 0.2 µM)
NCI-H2085	0.494	0.496	0.513	0.306	0.92	0.732	0.454	1.03	0.937	0.984	0.485	0.404	0.417	0.19	0.196	0.835	0.832	0.5	0.387	–
LCLC-103H	0.727	0.636	0.661	0.62	0.801	0.874	0.669	1.08	0.935	0.641	0.538	0.536	0.427	0.251	0.291	0.45	0.347	0.187	0.259	0.875
NCI-H2405	0.543	0.574	0.613	0.55	0.749	0.774	0.652	0.875	0.967	0.721	0.33	0.463	0.384	0.254	0.145	0.689	0.418	0.272	0.261	0.669
NCI-H1666	0.904	0.736	0.78	0.709	0.72	0.732	0.633	0.806	0.442	0.297	0.298	0.351	0.326	0.267	0.274	0.671	0.479	0.428	0.43	0.834
EPLC-272H	0.322	0.282	0.282	0.207	0.205	0.21	0.202	0.786	0.831	0.802	0.122	0.318	0.26	0.199	0.165	0.306	0.192	0.203	0.159	0.209
NCI-H2347	0.268	0.482	0.275	0.285	0.689	0.783	0.655	0.933	1.01	1	0.539	0.726	1.23	0.568	0.385	0.517	0.456	0.336	0.326	0.856
LU99A	0.705	0.583	0.643	0.484	0.414	0.295	0.418	1.04	0.463	0.162	0.229	0.293	0.185	0.152	0.164	0.268	0.247	0.226	0.222	0.414
NCI-H650	0.964	0.985	0.919	0.963	0.953	1.23	1.28	0.652	0.775	0.561	0.14	0.853	0.816	0.274	0.186	0.693	0.408	0.17	0.177	1.19
HCC-827	0.205	0.159	0.148	0.169	0.137	0.116	0.123	1.03	0.678	0.747	0.568	0.822	0.775	0.457	0.504	0.409	0.374	0.337	0.257	0.153
201T	0.709	0.675	0.694	0.636	0.596	0.619	0.546	1.02	1.14	1.09	0.487	0.642	0.731	0.476	0.396	0.871	0.6	0.35	0.302	0.57
EKVX	0.367	0.2	0.191	0.162	0.686	0.423	0.219	0.996	0.652	0.636	0.351	0.419	0.411	0.199	0.142	0.377	0.312	0.317	0.183	0.693
LC-2-ad	0.902	0.907	0.87	0.775	0.843	0.514	0.389	1.08	0.509	0.233	0.108	0.396	0.194	0.0807	0.0727	0.422	0.285	0.321	0.25	0.508
HCC-15	0.394	0.344	0.339	0.347	1.34	1.31	1.07	1.05	0.773	0.696	0.166	0.686	0.494	0.136	0.138	0.25	0.134	0.126	0.0965	1.25
PC-3 [JPC-3]	0.557	0.427	0.337	0.332	0.639	0.415	0.356	0.822	0.86	0.867	0.687	0.673	0.631	0.542	0.376	0.924	0.814	0.492	0.58	0.522
ChaGo-K-1	0.886	0.874	0.909	0.832	–	0.845	0.76	0.889	0.908	0.356	0.303	0.357	0.511	0.179	0.233	0.196	0.208	0.215	0.236	0.922
